According to patent publication US20250257059A1, “PROTEIN TYROSINE PHOSPHATASE INHIBITORS AND USES THEREOF” (Nerio Therapeutics, Inc., priority 2022, published 2025):
Several values for one entry are separate records, joined by “and”; a condition that tells them apart may be missing. Equal values may be shown once. Read-outs that look alike come from different tables or passages of the source.

Experiments:
[1] = molecular target: full-length human PTPN2 (TC45) (1-387) (Homo sapiens (Human), UniProt P17706); experiment: Enzymatic assay used to determine potency of PTPN2 inhibitors (full length PTPN2 DiFMUP assay); type: biochemical; settings: 0.5 nM PTPN2, 100 μM DiFMUP, 30 min at room temperature
Chain of full-length human PTPN2 (TC45) (1-387) (P17706 other isoform, or with tags, fused parts or gaps): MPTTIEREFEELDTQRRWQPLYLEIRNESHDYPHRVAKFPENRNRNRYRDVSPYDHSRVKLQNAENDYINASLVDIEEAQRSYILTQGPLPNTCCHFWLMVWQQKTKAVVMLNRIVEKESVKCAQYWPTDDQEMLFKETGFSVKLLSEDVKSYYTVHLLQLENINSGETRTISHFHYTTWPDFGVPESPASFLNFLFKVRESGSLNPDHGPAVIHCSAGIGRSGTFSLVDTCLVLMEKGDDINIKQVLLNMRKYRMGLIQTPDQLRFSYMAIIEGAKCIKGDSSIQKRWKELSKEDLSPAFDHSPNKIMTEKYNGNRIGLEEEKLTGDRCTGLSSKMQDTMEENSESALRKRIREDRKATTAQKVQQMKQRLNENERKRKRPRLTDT
Protocol: Compound activity was determined in an in vitro enzymatic assay using untagged, full-length human PTPN2 (TC45) (1-387) protein. PTPN2 was produced in E. coli as a GST-TEV fusion and the GST was removed by TEV digestion, followed by additional purification to yield full-length PTPN2 (SEQ ID 1). PTPN2 enzyme was diluted in assay buffer (50 mM HEPES pH7.5, 0.2 mM EDTA, 1 mM DTT, 0.02% Brij-35, 0.02% BSA) to a final concentration of 0.5 nM and added to black 384-well non-binding plates (Greiner, 781900). Compounds were subsequently added using a Tecan D300e dispenser. Following a 10 min incubation at room temperature, DiFMUP substrate (ThermoFisher, D22065) was added to a final concentration of 100 μM. Plates were transferred to a SpectraMax plate reader (Molecular Devices) and fluorescence intensity was measured (ex 358, em 455) after a 30 min incubation at room temperature. […] A four-parameter curve fit was used to determine IC50 values from % inhibition data.

[2] = system: murine B16F10 melanoma cell line; experiment: B16F10 IFNγ-induced cellular growth inhibition assay (xCELLigence RTCA); type: cell-based; settings: B16F10 cells, 1 ng/mL mouse IFNγ, AUC of growth curve, read-out: B16 IFNγ Mediated Growth Inhibition Assay: AVG IC50
Protocol: Compound activity was determined using an interferon gamma (IFNγ)-induced cellular growth inhibition assay with the murine B16F10 melanoma cell line on an Agilent xCELLigence Real-Time Cell Analysis platform (RTCA). RTCA E-Plate View 96 plates (Agilent, 300601010) were pre-equilibrated with 50 μL of assay media (DMEM+10% FBS, Gibco 10566-024, Gibco 10082-147) at 37° C. in a humidified incubator before taking an initial measurement of impedance (sweep). B16F10 cells cultured in assay media were dissociated with TrypLE Express (Gibco 12605-010) for five minutes at 37° C., diluted in 3 volumes of assay buffer, centrifuged for 5 minutes at 500×g at room temperature before diluting cells to 7,700 cells/mL in assay media, plating 130 μL/well (1,000 cells/well) in the inner 60 wells of the assay plate, and adding 150 μL of assay media to the outer wells of the plate. Cells were incubated at room temperature for 20 min to allow cells to settle before placing them in the xCELLigence reader and incubating overnight at 37° C., sweeping wells every 15 minutes. After 24 hours, well readings were paused, plates were removed from the incubator and compounds were added using a Tecan D300e dispenser. All wells were normalized to a final concentration of 0.5% DMSO. Following a 30 min incubation at 37° C., recombinant mouse IFNγ (R&D Systems™ 485MI100) was diluted to 10 ng/mL in assay media and 20 μL was added to assay wells (1 ng/mL final concentration). Assay plates were placed in the xCELLigence reader and swept every 15 minutes.

SMILES | IC50 [1] | IC50 ([2]; Mus musculus, B16-F10, 48 h) [nM] | IC50 ([2]; 48 hours) [nM]
O=C1CN(c2c(O)cc(C[C@H]3CCNC3)cc2F)S(=O)(=O)N1 (single isomer, unassigned) [Example 25] | 15 nM |  | 
O=C1CN(c2c(O)cc(C[C@@H]3CCNC3)cc2F)S(=O)(=O)N1 (single isomer, unassigned) [Example 26] | 8 nM |  | 
O=C1CN(c2c(O)cc(C[C@H]3CCCNCC3)cc2F)S(=O)(=O)N1 (single isomer, unassigned) [Example 58] | 51 nM | > 100000 | 
O=C1CN(c2c(O)cc(C[C@@H]3CCCNCC3)cc2F)S(=O)(=O)N1 (single isomer, unassigned) [Example 59] | 16 nM | > 47000 | 
CC(C)CCN1CCCC[C@@H]1Cc1ccc(O)c(N2CC(=O)NS2(=O)=O)c1F (single isomer, unassigned) [Example 81] | 3 nM | 363 | 
CC(C)CCN1CCCC[C@H]1Cc1ccc(O)c(N2CC(=O)NS2(=O)=O)c1F (single isomer, unassigned) [Example 82] | 76 nM | 36300 | 
CC(C)C[C@H]1CCN(CCc2cc(O)c(N3CC(=O)NS3(=O)=O)c(F)c2)C1 (single isomer, unassigned) [Example 119] | 2 nM and 3 nM | 2430 | 1600
O=C1CN(c2c(O)cc(CCN3CC[C@H](C(F)(F)F)C3)cc2F)S(=O)(=O)N1 (single isomer, unassigned) [Example 123] | 2 nM | 1840 | 
CN1CCC(Cc2cc(O)c(N3CC(=O)NS3(=O)=O)c(F)c2)C1 (centres unmarked) [Example 1, 5-(2-fluoro-6-hydroxy-4-((1-methylpyrrolidin-3-yl)methyl)phenyl)-1,2,5-thiadiazolidin-3-one 1,1-dioxide] | 7 nM |  | 
CC(C)N1CCC(Cc2cc(O)c(N3CC(=O)NS3(=O)=O)c(F)c2)C1 (centres unmarked) [Example 2] | 14 nM | 28200 | 
CN(C)CCN1CCC(Cc2cc(O)c(N3CC(=O)NS3(=O)=O)c(F)c2)C1 (centres unmarked) [Example 3] | 3 nM | > 100000 | 
O=C1CN(c2c(O)cc(CC3CCN(Cc4cnco4)C3)cc2F)S(=O)(=O)N1 (centres unmarked) [Example 4] | 14 nM | > 100000 | 
O=C1CN(c2c(O)cc(CC3CCN(CCN4CCCCC4)C3)cc2F)S(=O)(=O)N1 (centres unmarked) [Example 5] | 7 nM | 84600 | 
O=C1CN(c2c(O)cc(CC3CCN(Cc4ncco4)C3)cc2F)S(=O)(=O)N1 (centres unmarked) [Example 6] | 20 nM | > 100000 | 
O=C1CN(c2c(O)cc(CC3CCN(Cc4ccco4)C3)cc2F)S(=O)(=O)N1 (centres unmarked) [Example 7] |  | 2470 | 
CCCCN1CCC(Cc2cc(O)c(N3CC(=O)NS3(=O)=O)c(F)c2)C1 (centres unmarked) [Example 8] | 88 nM | 18600 | 
CC(C)CN1CCC(Cc2cc(O)c(N3CC(=O)NS3(=O)=O)c(F)c2)C1 (centres unmarked) [Example 9] | 21 nM | 13200 | 
O=C1CN(c2c(O)cc(CC3CCN(CC4CC4)C3)cc2F)S(=O)(=O)N1 (centres unmarked) [Example 10] | 50 nM |  | 17400
CCCN1CCC(Cc2cc(O)c(N3CC(=O)NS3(=O)=O)c(F)c2)C1 (centres unmarked) [Example 11] | 18 nM | 5180 | 
O=C1CN(c2c(O)cc(CC3CCN(Cc4ccoc4)C3)cc2F)S(=O)(=O)N1 (centres unmarked) [Example 12] | 12 nM | 4340 | 
CCCCCCN1CCC(Cc2cc(O)c(N3CC(=O)NS3(=O)=O)c(F)c2)C1 (centres unmarked) [Example 13] | 13 nM | 36200 | 
O=C1CN(c2c(O)cc(CC3CCN(CC4CCCO4)C3)cc2F)S(=O)(=O)N1 (centres unmarked) [Example 14] | 14 nM | 52800 | 
O=C1CN(c2c(O)cc(CC3CCN(CC4CCOC4)C3)cc2F)S(=O)(=O)N1 (centres unmarked) [Example 15] | 24 nM | > 48000 | 
O=C1CN(c2c(O)cc(CC3CCN(Cc4cocn4)C3)cc2F)S(=O)(=O)N1 (centres unmarked) [Example 16] | 16 nM | 35800 | 
O=C1CN(c2c(O)cc(CC3CCN(Cc4ncc[nH]4)C3)cc2F)S(=O)(=O)N1 (centres unmarked) [Example 17] | 7 nM | > 52000 | 
O=C1CN(c2c(O)cc(CC3CCN(Cc4ccn[nH]4)C3)cc2F)S(=O)(=O)N1 (centres unmarked) [Example 18] | 7 nM | > 58000 | 

SMILES | IC50 [1] | IC50 ([2]; Mus musculus, B16-F10, 48 h) [nM] | IC50 ([2]; 48 hours) [nM]
CC(C)CCN1CCC(Cc2cc(O)c(N3CC(=O)NS3(=O)=O)c(F)c2)C1 (centres unmarked) [Example 19] | 12 nM | 8430 | 
CC(C)(C)CN1CCC(Cc2cc(O)c(N3CC(=O)NS3(=O)=O)c(F)c2)C1 (centres unmarked) [Example 20] | 15 nM | 2620 | 
O=C1CN(c2c(O)cc(CC3CCN(CC4CCCC4)C3)cc2F)S(=O)(=O)N1 (centres unmarked) [Example 21] | 15 nM | 4590 | 
O=C1CN(c2c(O)cc(CC3CCN(CC4CCC4)C3)cc2F)S(=O)(=O)N1 (centres unmarked) [Example 22] | 10 nM | 1230 | 
CC(C)(C)CCN1CCC(Cc2cc(O)c(N3CC(=O)NS3(=O)=O)c(F)c2)C1 (centres unmarked) [Example 23] | 14 nM | 4330 | 
O=C1CN(c2c(O)cc(CC3CCCN(Cc4cocn4)C3)cc2F)S(=O)(=O)N1 (centres unmarked) [Example 47] | 98 nM |  | 
O=C1CN(c2c(O)cc(CC3CCCNCC3)cc2F)S(=O)(=O)N1 (centres unmarked) [Example 57] | 15 nM |  | 
O=C1CN(c2c(O)ccc(CC3CCCCN3)c2F)S(=O)(=O)N1 (centres unmarked) [Example 75] | 20 nM |  | 
CC(C)CCCN1CCCCC1Cc1ccc(O)c(N2CC(=O)NS2(=O)=O)c1F (centres unmarked) [Example 79] |  | 3450 | 
O=C1CN(c2c(O)ccc(CC3CCCCN3CCC3CCCC3)c2F)S(=O)(=O)N1 (centres unmarked) [Example 80] |  | 22700 | 
O=C1CN(c2c(O)cc(CCN3CCOCC3)cc2F)S(=O)(=O)N1 [Example 89] |  | 8910 | 
O=C1CN(c2c(O)cc(CCN3CCCC(F)C3)cc2F)S(=O)(=O)N1 (centres unmarked) [Example 97] |  | 1540 | 
COC1CCN(CCc2cc(O)c(N3CC(=O)NS3(=O)=O)c(F)c2)CC1 [Example 104] |  | 723 | 
CC(C)(C)C1CCN(CCc2cc(O)c(N3CC(=O)NS3(=O)=O)c(F)c2)C1 (centres unmarked) [Example 111] |  | 130 | 
O=C1CN(c2c(O)cc(CCN3CCC4(CCCC4)C3)cc2F)S(=O)(=O)N1 [Example 112] |  | 165 | 
O=C1CN(c2c(O)cc(CCN3CCC4(CCOCC4)C3)cc2F)S(=O)(=O)N1 [Example 113] |  | 216 | 
COC[C@@H]1CCN(CCc2cc(O)c(N3CC(=O)NS3(=O)=O)c(F)c2)C1 [Example 117] |  | 331 | 
CC(C)C[C@@H]1CCN(CCc2cc(O)c(N3CC(=O)NS3(=O)=O)c(F)c2)C1 [Example 120] |  | 2640 | 
O=C1CN(c2c(O)cc(CCN3CC[C@@H](C(F)(F)F)C3)cc2F)S(=O)(=O)N1 [Example 122] |  | 2670 | 
CC1(C)CN(CCc2cc(O)c(N3CC(=O)NS3(=O)=O)c(F)c2)C1 [Example 127] |  | 657 | 
O=C1CN(c2c(O)cc(CCN3Cc4ccccc4C3)cc2F)S(=O)(=O)N1 [Example 128] |  | 610 | 
CC(C)[C@@H]1CCN(CCc2cc(O)c(N3CC(=O)NS3(=O)=O)c(F)c2)C1 [Example 134] |  | 516 | 
CC(C)[C@H]1CCN(CCc2cc(O)c(N3CC(=O)NS3(=O)=O)c(F)c2)C1 [Example 135] |  | 290 | 
O=C1CN(c2c(O)cc(CCN3CC(F)C3)cc2F)S(=O)(=O)N1 [Example 136] |  | 937 | 
O=C1CN(c2c(O)cc(CCN3CC(C(F)(F)F)C3)cc2F)S(=O)(=O)N1 [Example 137] |  | 2160 | 
CC1CN(CCc2cc(O)c(N3CC(=O)NS3(=O)=O)c(F)c2)C1 [Example 140] |  | 472 | 
